Columns and labels:
[1] = tested on: LPS-induced TNF human peripheral blood mononuclear cells (hPBMC); assay: LPS-induced TNF in hPBMC; assay type: cell-based
[2] = molecular target: COX2 (Homo sapiens, UniProt P35354); assay: COX2 inhibition; assay type: biochemical
[3] = molecular target: p38α MAP kinase (Homo sapiens, UniProt Q16539); assay: p38α MAP kinase enzyme inhibition; assay type: biochemical
[4] = tested on: LPS-induced IL-1 in hPBMC; assay: LPS-induced IL-1 in hPBMC; assay type: cell-based, human
[5] = molecular target: COX1 (Homo sapiens, UniProt P23219); assay: COX1 inhibition; assay type: biochemical
[6] = molecular target: inactivated p38 MAP kinase (Homo sapiens, UniProt Q16539); assay: binding to inactivated p38 MAP kinase; details: read-out: binds to inactivated p38 MAP kinase, Kd
[7] = tested on: injured cartilage explants, PGE2 synthesis; assay: drop tower design model: PGE2 synthesis; assay type: cell-based, bovine; details: cocktail of cytokines
Text: The device comprises a vertical rail that guides a sliding weight from 0.1 kg to 3 kg directly onto a force transducer which is situated at the bottom of the device. A sphere-shaped 2 mm indenter resting on a specimen is located at the bottom of the vertical rail. The indenter is held by a stop screw. The specimen is rigidly attached to a tissue holder underneath the indenter, to avoid side movements, the specimen is rigidly attached to the tissue holder. In this manner, the force transducer transduces a force indirectly onto the specimen. Adjusting the weight of a mass and height from which the mass drops varies the magnitude of the intended impact. For example, a weight mass (e.g., […]) held by a weight holder can be released from a height of e.g., 36 cm and dropped onto the force transducer. […]
In the first method, bovine or human PBMCs were freshly prepared using Ficoll gradient by Lampire Biological Laboratories, Inc. PBMCs in RPMI w/10% FCS at delivery were spun down at 1500 rpm for twenty minutes and the cell pellet was washed twice with 1×PBS to wash off the residual Ficoll. […] Each conditioned medium was assessed for levels of pro-inflammatory cytokines to ensure their secretion from PBMC. […]
PGE2 was measured with STAT-Prostaglandin E2 EIA ELISA kit (Cayman Biochemicals), as described in Example III above. […]

[8] = tested on: injured cartilage explants; assay type: cell-based
Text: The device comprises a vertical rail that guides a sliding weight from 0.1 kg to 3 kg directly onto a force transducer which is situated at the bottom of the device. A sphere-shaped 2 mm indenter resting on a specimen is located at the bottom of the vertical rail. The indenter is held by a stop screw. The specimen is rigidly attached to a tissue holder underneath the indenter, to avoid side movements, the specimen is rigidly attached to the tissue holder. In this manner, the force transducer transduces a force indirectly onto the specimen. Adjusting the weight of a mass and height from which the mass drops varies the magnitude of the intended impact. For example, a weight mass (e.g., […]) held by a weight holder can be released from a height of e.g., 36 cm and dropped onto the force transducer.

Sequence of COX2 (P35354 18-604): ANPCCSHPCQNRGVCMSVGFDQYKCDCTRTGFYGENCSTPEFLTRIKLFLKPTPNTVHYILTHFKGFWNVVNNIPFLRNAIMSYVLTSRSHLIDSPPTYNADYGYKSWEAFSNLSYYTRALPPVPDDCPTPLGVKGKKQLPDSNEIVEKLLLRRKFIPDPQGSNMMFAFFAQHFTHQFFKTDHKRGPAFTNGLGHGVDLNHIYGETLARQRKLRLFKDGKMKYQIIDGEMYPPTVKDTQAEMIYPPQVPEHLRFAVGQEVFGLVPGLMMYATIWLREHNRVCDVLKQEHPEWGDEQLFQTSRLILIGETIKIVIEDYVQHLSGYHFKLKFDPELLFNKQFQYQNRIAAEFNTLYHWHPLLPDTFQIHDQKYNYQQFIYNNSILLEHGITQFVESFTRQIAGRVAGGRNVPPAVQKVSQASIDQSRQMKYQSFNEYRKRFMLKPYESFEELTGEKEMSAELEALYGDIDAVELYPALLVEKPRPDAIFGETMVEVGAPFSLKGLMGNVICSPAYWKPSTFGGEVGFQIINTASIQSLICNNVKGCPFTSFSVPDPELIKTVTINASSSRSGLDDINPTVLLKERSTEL
Sequence of p38α MAP kinase (Q16539 whole entry): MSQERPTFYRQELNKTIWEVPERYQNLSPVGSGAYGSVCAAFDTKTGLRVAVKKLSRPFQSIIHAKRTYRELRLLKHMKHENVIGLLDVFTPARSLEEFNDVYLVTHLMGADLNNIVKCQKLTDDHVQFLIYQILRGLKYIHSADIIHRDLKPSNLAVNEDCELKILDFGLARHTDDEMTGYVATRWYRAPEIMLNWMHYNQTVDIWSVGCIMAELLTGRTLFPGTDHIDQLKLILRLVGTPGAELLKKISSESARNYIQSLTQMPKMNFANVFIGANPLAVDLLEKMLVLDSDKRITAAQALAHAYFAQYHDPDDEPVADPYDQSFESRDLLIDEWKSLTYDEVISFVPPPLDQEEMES
Sequence of inactivated p38 MAP kinase (Q16539 whole entry): as above
Sequence of COX1 (P23219 24-599): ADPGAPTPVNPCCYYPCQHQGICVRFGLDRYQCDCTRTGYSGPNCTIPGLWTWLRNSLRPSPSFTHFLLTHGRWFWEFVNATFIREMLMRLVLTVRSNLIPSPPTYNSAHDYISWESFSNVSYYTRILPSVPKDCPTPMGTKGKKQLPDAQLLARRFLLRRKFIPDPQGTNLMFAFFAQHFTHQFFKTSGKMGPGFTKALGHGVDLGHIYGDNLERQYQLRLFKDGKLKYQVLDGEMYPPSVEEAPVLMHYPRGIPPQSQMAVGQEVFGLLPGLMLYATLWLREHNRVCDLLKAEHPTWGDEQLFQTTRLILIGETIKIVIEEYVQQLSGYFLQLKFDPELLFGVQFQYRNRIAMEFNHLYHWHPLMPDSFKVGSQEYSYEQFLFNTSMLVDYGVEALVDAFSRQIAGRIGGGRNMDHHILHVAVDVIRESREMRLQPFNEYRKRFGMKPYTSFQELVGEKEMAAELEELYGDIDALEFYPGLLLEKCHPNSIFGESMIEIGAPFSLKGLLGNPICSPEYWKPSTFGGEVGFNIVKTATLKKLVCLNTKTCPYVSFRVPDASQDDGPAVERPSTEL

CC(=O)N1CCN(c2c(-c3ccncc3)c(-c3ccc(F)cc3)c(C#N)n2C)CC1 [JNJ 17089540 (RWJ 669307)] was tested, and the IC50 [1] was 220 nM, the IC50 [2] was greater than 10 µM and the IC50 [3] was 2000 nM. For the same compound, the IC50 [4] was 250 nM, the IC50 [5] was greater than 10 µM and the Kd [6] was 100 nM.
OCCC#Cc1nc(-c2ccc(F)cc2)c(-c2ccncc2)n1CCCc1ccccc1 [JNJ 3026582 (RWJ 67657), 4-[4-(4-fluorophenyl)-1-(3-phenylpropyl)-5-(4-pyridinyl)-1H-imidazol-2-yl]-3-butyn-1-ol] was tested, and the “PGE2 synthesis, inhibition” value [7] was “dose-dependently inhibited”.
With CC(=O)Oc1cccc2c1C(=O)c1c(OC(C)=O)cc(C(=O)O)cc1C2=O [Diacerein, reference compound] the “cytotoxicity (LDH, words)” value [8] was “tolerant”.

Reference: patent publication US8986696B2, “Trans-capsular administration of p38 map kinase inhibitors into orthopedic joints” (DePuy Mitek, Inc., priority 2007, dated 2015)
